# According to US6635665B2, “Remedies or preventives for pulmonary insufficiency containing diaminotrifluoromethylpyridine derivatives” (Ishihara Sangyo Kaisha, Ltd., priority 2000, dated 2003):
# Tested on: LPS induced rat ARDS model
# Experiment: Therapeutic effect on lipopolysaccharide (LPS) induced rat ARDS model
# Format: in vivo
# Source text: The therapeutic effect of N-(2-ethylsulfonylamino-5-trifluoromethyl-3-pyridyl)cyclohexanecarboxamide sodium salt hydrate (hereinafter referred to as compound 1) on LPS induced rat ARDS model was examined.
# The compound 1 was used as a drug formulation. The formulation composition (content per one vial) was as follows.
# To Crj: CD(SD)IGS male rats (7 weeks old) (Charles River Japan Inc.), LPS (derived from Salmonella enteritidis; L6011, Lot. 27H4127, manufactured by Sigma) diluted with a phosphate buffer solution (PBS) was administered by spraying it on the trachea in a dose of 8 mg/kg (0.5 ml/rat) by means of an atomizer (endotracheal liquid atomizing apparatus 1A-1B, manufactured by Penn Century) to induce ARDS. For normal group rats, PBS was similarly sprayed.
# A drug formulation of the compound 1 diluted with 5% glucose was subcutaneously administered continuously in a dose of 0.3 mg/kg/hr as calculated as anhydride of the compound 1 by means of an osmotic pump from immediately after the induction to the time of autopsy (24 hours after). To non-treated group rats, 5% glucose used as the solvent was administered similarly.
# 24 Hours after the administration of LPS, measurement of the body weight and the lung wet weight, biochemical examination of blood and pathological and histopathological examinations were carried out with respect to every surviving rats.
# No death was confirmed 24 hours after the LPS administration, and thus various examinations were carried out with respect to every rat. Here, the pathological score was obtained by evaluating each rat in five stages of −(no significant lesion), ±(slight), +(mild), ++(moderate) and +++(marked), and allotting 0, 0.5, 1, 2 and 3 points, respectively, to obtain the average of each group.
# [1] = Crj:CD(SD)IGS male rats, LPS 8 mg/kg on the trachea, 0.3 mg/kg/hr x 24 hr subcutaneous by osmotic pump, 24 hours after LPS, score 0-3, non-treated group 2.7, P < 0.01 vs. non-treated group
# [2] = Crj:CD(SD)IGS male rats, LPS 8 mg/kg on the trachea, 0.3 mg/kg/hr x 24 hr subcutaneous by osmotic pump, 24 hours after LPS, score 0-3, non-treated group 2.8, P < 0.01 vs. non-treated group
smiles,measurement,setting,value
"CCS(=O)(=O)Nc1ncc(C(F)(F)F)cc1NC(=O)C1CCCCC1.O.[Na] [Compound 1, N-(2-ethylsulfonylamino-5-trifluoromethyl-3-pyridyl)cyclohexanecarboxamide sodium salt hydrate]","Histopathological findings of alveoli: Collapse of alveolar wall (average of score in each group), Mean",[1],1.2
same,"Histopathological findings of alveoli: Hemorrhage in alveoli (average of score in each group), Mean",[1],1.5
same,"Histopathological findings of alveoli: Alveolar edema (average of score in each group), Mean",[2],1.4
same,"Histopathological findings of alveoli: Fibrin deposit in alveoli (average of score in each group), Mean",[2],1.5
same,"Autopsy findings of lung: Edema (average of score in each group), Mean","Crj:CD(SD)IGS male rats, LPS 8 mg/kg on the trachea, 0.3 mg/kg/hr x 24 hr subcutaneous by osmotic pump, autopsy 24 hours after LPS, score 0, 0.5, 1, 2, 3 for -, ±, +, ++, +++, non-treated group 0.4",0.1
same,"Autopsy findings of lung: Hemorrhage (average of score in each group), Mean","Crj:CD(SD)IGS male rats, LPS 8 mg/kg on the trachea, 0.3 mg/kg/hr x 24 hr subcutaneous by osmotic pump, autopsy 24 hours after LPS, score 0-3, non-treated group 1.0",0.5
same,"Autopsy findings of lung: Congestion (average of score in each group), Mean","Crj:CD(SD)IGS male rats, LPS 8 mg/kg on the trachea, 0.3 mg/kg/hr x 24 hr subcutaneous by osmotic pump, autopsy 24 hours after LPS, score 0-3, non-treated group 2.8, P < 0.01 vs. non-treated group",2.2
same,"Collapse of the alveolar wall, alveolar edema and hemorrhage, and fibrin deposit in the alveoli","LPS induced rat ARDS model, compound 1 administered group (0.3 mg/kg/hr subcutaneous, 24 hours) compared with non-treated group, result in words",reduced
same,Inhibition effect against ARDS pathological progress,"LPS induced rat ARDS model, compound 1 administered group (0.3 mg/kg/hr subcutaneous, 24 hours), result in words",remarkable inhibition effect
